This is an account of results in patent publication US9464075B2 (priority 2008, dated 2016).

Read-outs that look alike come from different tables or passages of the source.

Assay [1] has as its target A/M2 channels (Influenza virus A/Udorn/72 A/M2 protein) (Influenza A virus, UniProt P0DOF5). Put plainly: cell-based. The following applies: for activity at 100 µM: read-out: AM2 channel activity after 100 μM compound inhibition.
The target in a further assay is AM2 (Influenza A virus, UniProt P0DOF5). Description: cell-based. The following applies: read-out: AM2 % inhibition at 100 μM.
The target in the next assay is A/M2TM (22-46) (Influenza A virus, UniProt P0DOF5). Description: biochemical. Type of assay: binding.
Chain of A/M2TM (22-46) (P0DOF5 22-46 limits assumed): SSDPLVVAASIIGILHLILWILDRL

Chain of A/M2 channels (Influenza virus A/Udorn/72 A/M2 protein) (P0DOF5 whole entry, looked up): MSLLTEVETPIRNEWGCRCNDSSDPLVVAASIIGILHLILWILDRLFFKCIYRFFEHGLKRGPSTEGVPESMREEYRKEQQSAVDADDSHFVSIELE
Chain of AM2 (P0DOF5 whole entry): as the sequence (P0DOF5 whole entry, looked up) above

As for `c1nc(CNCCNC2CCC3(CCCCC3)CC2)c[nH]1` [Compound 14, N-(1H-Imidazol-4-ylmethyl)-N′-spiro[5.5]undec-3-yl-ethane-1,2-diamine], in assay [1], the activity at 100 µM came out at 91%.

Regarding `NC1CSC2(CCCCCC2)SC1` [Compound 34, 1,5-Dithia-spiro[5.6]dodec-3-yl-ammonium chloride], at AM2, the inhibition (in general, how much of the control response was suppressed) at 100 µM stood at 84.1%.

`NN1C(=O)CC2(CCCCC2)CC1=O` [Compound 28, 3-Amino-3-aza-spiro[5.5]undecane-2,4-dione]: on AM2, the inhibition at 100 µM is 29%.

For `NCCNC1CCC2(CCCCC2)CC1` [Compound 12, N^1-Spiro[5.5]undec-3-yl-ethane-1,2-diamine], the activity at 100 µM in assay [1] was 100%.

Turning to `OC1(c2cnc[nH]2)CCC2(CCCCC2)CC1` [Compound 15], the activity at 100 µM in assay [1] is 40%.

With `OC(c1c[nH]cn1)C1CCC2(CCCCC2)CC1` (stereo not shown) [Compound 18], the activity at 100 µM in assay [1] was determined as 30%.

As to `CCC1(CC)CCc2nc(N)sc2C1` [Compound 32, 6,6-Diethyl-4,5,6,7-tetrahydro-benzothiazol-2-ylamine], the inhibition at 100 µM at AM2 came to 32%.

As to `NC12CC3CC(CC(C3)C1)C2` [Amantadine, reference compound], the activity at 100 µM in assay [1] worked out at 6%.

Turning to `NCCCNC1CCC2(CCCCC2)CC1` [Compound 13, N^1-Spiro[5.5]undec-3-yl-propane-1,3-diamine], the activity at 100 µM in assay [1] stood at 100%.

For `Cl.NC1CSC2(CCCCC2)SC1` [Compound 33, 1,5-Dithia-spiro[5.5]undec-3-yl-ammonium chloride], the inhibition at 100 µM on AM2 was 84.2%.

As for `c1nc(NC2CCC3(CCCCC3)CC2)n[nH]1` [Compound 11, Spiro[5.5]undec-3-yl-(1H-[1,2,4]triazol-3-yl)-amine], the activity at 100 µM in assay [1] is 25%.

As for `Cl.NC1CCC2(CCCCC2)CC1` [Compound 8], in assay [1], the “AM2 channel activity after 100 μM compound inhibition” value worked out at 11%.

`C1CCC2(CC1)CCN(C1=NCCN1)CC2` [BL-1743, 3-(4,5-Dihydro-1H-imidazol-2-yl)-3-aza-spiro[5.5]undecane, reference compound]: the Kd – broadly, the concentration at which binding is half-saturated – at A/M2TM (22-46) stood at 194 µM. Further, in assay [1], half-maximal inhibition (IC50) was put at 45.3 ± 3.92 µM and the activity at 100 µM amounted to 25%.

As to `N=C(N)NC1CCC2(CCCCC2)CC1` [Compound 35], the inhibition at 100 µM on AM2 is 92%.

For `C1CCC2(CC1)CCNCC2` [Compound 20, 3-Aza-spiro[5.5]undecane, reference compound], on A/M2TM (22-46) (read-out: Kd), the Kd stood at 12.9 µM. Further, in assay [1], the IC50 (commonly the concentration needed to halve the response being measured) was 0.92 ± 0.11 µM and the activity at 100 µM stood at 5%.

`NN1CCC2(CCCCC2)CC1` [Compound 29, 3-Aza-spiro[5.5]undec-3-yl-ammonium chloride]: the inhibition at 100 µM at AM2 was found to be 86%.

Regarding `C1CCC2(CC1)CCCNCC2` [Compound 30, 9-Azonia-spiro[5.6]dodecane chloride], the inhibition at 100 µM at AM2 was determined as 94%.

On to `Cl.NNC1CCC2(CCCCC2)CC1` [Compound 31, N′-Spiro[5.5]undec-3-yl-hydrazinium chloride], for which the inhibition at 100 µM on AM2 is 78.8%.
